Test results: patent US9545105B2, “1-(heterocyclic carbonyl) piperidines” (BAYER INTELLECTUAL PROPERTY GMBH, priority 2010, dated 2017)

System: not listed separately
Assay: log P by HPLC on reversed-phase column (C 18), EEC Directive 79/831 Annex V.A8
Assay type: physicochemical
Details: HPLC on reversed-phase column (C 18); 40° C.; 0.1% aqueous formic acid and acetonitrile; linear gradient 10% to 90% acetonitrile
Experimental: In table 1, the log P values were determined in accordance with EEC Directive 79/831 Annex V.A8 by HPLC (High Performance Liquid Chromatography) on a reversed-phase column (C 18), using the method described below: Temperature: 40° C.; Mobile phases: 0.1% aqueous formic acid and acetonitrile; linear gradient from 10% acetonitrile to 90% acetonitrile. Calibration was carried out using unbranched alkan-2-ones (comprising 3 to 16 carbon atoms) with known log P values (determination of the log P values by the retention times using linear interpolation between two successive alkanones). lambda-max-values were determined using UV-spectra from 200 nm to 400 nm and the peak values of the chromatographic signals.

logP | SMILES
3.19 | CCc1noc(C)c1C(=O)N1CCCCC1c1ccccc1C (stereo not drawn) [Example 2]
3.73 | Cc1cc(C(=O)N2CCCCC2c2ccccc2C)c(C)o1 (stereo not drawn) [Example 3]
4.34 | Cc1cc(C)cc(C2CCCCN2C(=O)c2cc(C)oc2C)c1 (stereo not drawn) [Example 12]
3.55 | Cc1cc(C)cc(C2CCCCN2C(=O)c2nn(C)cc2I)c1 (stereo not drawn) [Example 13]
3.09 | Cc1cc(C)cc(C2CCCCN2C(=O)c2cn(C)nc2[N+](=O)[O-])c1 (stereo not drawn) [Example 14]
3.60 | Cc1cc(C)cc(C2CCCCN2C(=O)c2nnsc2C)c1 (stereo not drawn) [Example 15]
4.59 | Cc1cc(C)cc(C2CCCCN2C(=O)c2snnc2C(C)C)c1 (stereo not drawn) [Example 16]
3.71 | Cc1cc(C)cc(C2CCCCN2C(=O)c2snnc2C)c1 (stereo not drawn) [Example 17]
3.55 | Cc1cc(C)cc(C2CCCCN2C(=O)c2nn(C)cc2Br)c1 (stereo not drawn) [Example 18]
3.44 | Cc1cc(C)cc(C2CCCCN2C(=O)c2nn(C)cc2Cl)c1 (stereo not drawn) [Example 19]
3.67 | CCn1nc(C)c(C(=O)N2CCCCC2c2cc(C)cc(C)c2)c1F (stereo not drawn) [Example 20]
3.73 | Cc1cc(C)cc(C2CCCCN2C(=O)c2scnc2Cl)c1 (stereo not drawn) [Example 21]
4.59 | Cc1cc(C)cc(C2CCCCN2C(=O)c2c(C(F)(F)F)cn(C)c2Cl)c1 (stereo not drawn) [Example 22]
4.86 | Cc1cc(C)cc(C2CCCCN2C(=O)c2sc(Cl)nc2Cl)c1 (stereo not drawn) [Example 23]
3.85 | Cc1cc(C)cc(C2CCCCN2C(=O)c2cn(C)nc2C(Cl)Cl)c1 (stereo not drawn) [Example 24]
4.49 | Cc1cc(C)cc(C2CCCCN2C(=O)c2sc(Cl)nc2C)c1 (stereo not drawn) [Example 25]
4.51 | Cc1cc(C)cc(C2CCCCN2C(=O)c2sc(Br)nc2C)c1 (stereo not drawn) [Example 26]
3.44 | Cc1cc(C)cc(C2CCCCN2C(=O)c2sc(C)nc2C)c1 (stereo not drawn) [Example 27]
4.06 | Cc1cc(C)cc(C2CCCCN2C(=O)c2sc(C)nc2Cl)c1 (stereo not drawn) [Example 28]
3.25 | Cc1cc(C)cc(C2CCCCN2C(=O)c2scnc2C)c1 (stereo not drawn) [Example 29]
4.34 | CCn1ncc(Cl)c1C(=O)N1CCCCC1c1cc(C)cc(C)c1 (stereo not drawn) [Example 32]

logP | SMILES
4.93 | Cc1cc(C)cc(C2CCCCN2C(=O)c2c(C)oc(C)c2Br)c1 (stereo not drawn) [Example 33]
4.21 | Cc1cc(C)cc(C2CCCCN2C(=O)c2ccsc2I)c1 (stereo not drawn) [Example 35]
3.29 | CCc1noc(C)c1C(=O)N1CCCCC1c1ccccc1Cl (stereo not drawn) [Example 38]
3.89 | Cc1cc(C(=O)N2CCCCC2c2ccccc2Cl)c(C)o1 (stereo not drawn) [Example 39]
3.48 | CCc1noc(C)c1C(=O)N1CCCCC1c1cccc(Cl)c1 (stereo not drawn) [Example 45]
4.04 | Cc1cc(C(=O)N2CCCCC2c2cccc(Cl)c2)c(C)o1 (stereo not drawn) [Example 46]
4.31 | Cn1nc(C(F)F)c(C(=S)N2CCCCC2c2cccc(Cl)c2)c1Cl (stereo not drawn) [Example 50]
3.51 | CCc1noc(C)c1C(=O)N1CCCCC1c1ccc(Cl)cc1 (stereo not drawn) [Example 52]
2.82 | CCc1noc(C)c1C(=O)N1CCCCC1c1ccc2c(c1)OCCO2 (stereo not drawn) [Example 61]
3.25 | Cc1cc(C(=O)N2CCCCC2c2ccc3c(c2)OCCO3)c(C)o1 (stereo not drawn) [Example 62]
2.66 | CCc1nn(C)c(F)c1C(=O)N1CCCCC1c1ccc2c(c1)OCCO2 (stereo not drawn) [Example 63]
2.39 | Cc1nn(C)c(F)c1C(=O)N1CCCCC1c1ccc2c(c1)OCCO2 (stereo not drawn) [Example 64]
2.99 | Cn1nc(C(F)F)c(C(=O)N2CCCCC2c2ccc3c(c2)OCCO3)c1Cl (stereo not drawn) [Example 66]
3.02 | CCc1noc(C)c1C(=O)N1CCCCC1c1cc(OC)cc(OC)c1 (stereo not drawn) [Example 69]
3.48 | COc1cc(OC)cc(C2CCCCN2C(=O)c2cc(C)oc2C)c1 (stereo not drawn) [Example 70]
3.73 | CCc1noc(C)c1C(=O)N1CCCCC1c1cccc(Cl)c1Cl (stereo not drawn) [Example 74]
3.60 | Cc1nn(C)c(Cl)c1C(=O)N1CCCCC1c1ccc(Cl)cc1Cl (stereo not drawn) [Example 75]
3.89 | CCc1noc(C)c1C(=O)N1CCCCC1c1ccc(Cl)cc1Cl (stereo not drawn) [Example 77]
3.78 | CCc1noc(C)c1C(=O)N1CCCCC1c1cc(Cl)ccc1Cl (stereo not drawn) [Example 85]
3.35 | CCc1noc(C)c1C(=O)N1CCCCC1c1ccccc1Br (stereo not drawn) [Example 89]
3.64 | CCc1noc(C)c1C(=O)N1CCCCC1c1ccc(Br)cc1 (stereo not drawn) [Example 101]

logP | SMILES
2.21 | COc1cc(C2CCCCN2C(=O)c2c(C)nn(C)c2F)cc(OC)c1OC (stereo not drawn) [Example 106]
2.64 | CCc1noc(C)c1C(=O)N1CCCCC1c1cc(OC)c(OC)c(OC)c1 (stereo not drawn) [Example 107]
3.04 | COc1cc(C2CCCCN2C(=O)c2cc(C)oc2C)cc(OC)c1OC (stereo not drawn) [Example 108]
2.49 | CCc1nn(C)c(F)c1C(=O)N1CCCCC1c1cc(OC)c(OC)c(OC)c1 (stereo not drawn) [Example 109]
4.65 | Cc1cc(C(=O)N2CCCCC2c2cccc(Oc3ccccc3)c2)c(C)o1 (stereo not drawn) [Example 111]
3.76 | CCc1noc(C)c1C(=O)N1CCCCC1c1ccc2ccccc2c1 (stereo not drawn) [Example 119]
4.29 | Cc1cc(C(=O)N2CCCCC2c2ccc(Br)s2)c(C)o1 (stereo not drawn) [Example 127]
3.55 | CCn1nc(C)c(C(=O)N2CCCCC2c2ccc(Br)s2)c1F (stereo not drawn) [Example 128]
3.11 | CCc1noc(C)c1C(=O)N1CCCCC1Cc1ccccc1 (stereo not drawn) [Example 130]
3.17 | Cc1nc(C(F)F)c(C(=O)N2CCCCC2Cc2ccccc2)s1 (stereo not drawn) [Example 133]
3.59 | Cc1cc(C(=O)N2CCCCC2Cc2cccc(F)c2)c(C)o1 (stereo not drawn) [Example 152]
3.63 | COc1ccccc1CC1CCCCN1C(=O)c1cc(C)oc1C (stereo not drawn) [Example 158]
3.70 | Cc1nc(C(F)F)c(C(=O)N2CCCCC2Cc2cccc(C(F)(F)F)c2)s1 (stereo not drawn) [Example 167]
4.06 | Cc1cc(C(=O)N2CCCCC2Cc2cccc(C(F)(F)F)c2)c(C)o1 (stereo not drawn) [Example 168]
3.76 | Cc1nc(C(F)F)c(C(=O)N2CCCCC2Cc2cccc3ccccc23)s1 (stereo not drawn) [Example 170]
3.65 | Cn1nc(C(F)F)c(C(=O)N2CCCCC2Cc2cccc3ccccc23)c1F (stereo not drawn) [Example 171]
3.44 | CCc1noc(C)c1C(=O)N1CCCCC1CCc1ccccc1 (stereo not drawn) [Example 174]
3.92 | Cc1cc(C(=O)N2CCCCC2CCc2ccccc2)c(C)o1 (stereo not drawn) [Example 175]
3.52 | Cc1nc(C(F)F)c(C(=O)N2CCCCC2CCc2ccccc2)s1 (stereo not drawn) [Example 178]
3.35 | Cc1nc(C(F)F)c(C(=O)N2CCCCC2CCc2cccs2)s1 (stereo not drawn) [Example 192]
3.79 | Cc1cc(C(=O)N2CCCCC2CCc2cccs2)c(C)o1 (stereo not drawn) [Example 193]

Same assay, conditions: reversed-phase HPLC column (C 18); HPLC, 40° C., 0.1% aqueous formic acid and acetonitrile

chromatographic logP | SMILES
3.55 | Cc1ccc(C2CCCC(C)N2C(=O)c2c(C(F)F)nn(C)c2F)cc1 (stereo not drawn) [Example 197]
3.73 | Cc1ccc(C2CCCC(C)N2C(=O)c2c(C(F)F)nn(C)c2Cl)cc1 (stereo not drawn) [Example 198]
3.17 | Cc1ccc(C2CCCC(C)N2C(=O)c2cn(C)nc2C(F)F)cc1 (stereo not drawn) [Example 199]

System: Pyrenophora teres
Assay: In vivo preventive test on Pyrenophora teres (barley)
Details: 500 ppm of active ingredient, evaluated 7-9 days after inoculation
Experimental: Solvent: 49 parts by weight of N,N-dimethylformamide Emulsifier: 1 part by weight of alkylaryl polyglycol ether To produce a suitable preparation of active compound, 1 part by weight of active compound is mixed with the stated amounts of solvent and emulsifier, and the concentrate is diluted with water to the desired concentration. To test for preventive activity, young plants are sprayed with the preparation of active compound at the stated rate of application. One day after this treatment, the plants are inoculated with an aqueous spore suspension of Pyrenophora teres. The plants remain for 48 hours in an incubation cabinet at 22° C. and a relative atmospheric humidity of 100%. Then the plants are placed in a greenhouse at a temperature of approximately 20° C. and a relative atmospheric humidity of approximately 80%. The test is evaluated 7-9 days after the inoculation. 0% means an efficacy which corresponds to that of the untreated control while an efficacy of 100% means that no disease is observed.

SMILES | Efficacy [%]
Cc1cc(C(=O)N2CCCCC2c2ccccc2C)c(C)o1 (stereo not drawn) [Example 3] | 80
Cc1cc(C)cc(C2CCCCN2C(=O)c2cc(C)oc2C)c1 (stereo not drawn) [Example 12] | 90
Cc1cc(C(=O)N2CCCCC2c2cccc(Cl)c2)c(C)o1 (stereo not drawn) [Example 46] | 90
Cn1nc(C(F)F)c(C(=S)N2CCCCC2c2cccc(Cl)c2)c1Cl (stereo not drawn) [Example 50] | 100
Cc1nn(C)c(F)c1C(=O)N1CCCCC1c1ccc2c(c1)OCCO2 (stereo not drawn) [Example 64] | 95
COc1cc(OC)cc(C2CCCCN2C(=O)c2cc(C)oc2C)c1 (stereo not drawn) [Example 70] | 80
